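Exposure lasted 48 hours, with cells grown in 96-well plates and compounds tested at five concentrations. GI50 is the concentration that inhibits growth by half.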 Activity calls are given as the source filed them. Rule as the data show it: active = GI50 up to about 1.1 µM and inactive = higher.
Experiments:
Assay in all cases: inhibition of tumour cell growth, NCI panel, 48 h
SR = tested on: SR
NCI-H460 = tested on: NCI-H460
NCI-H226 = tested on: NCI-H226
TK-10 = tested on: TK-10
DU-145 = tested on: DU-145
U-251 = tested on: U-251
MCF7 = tested on: MCF7
CCRF-CEM = tested on: CCRF-CEM
SK-MEL-5 = tested on: SK-MEL-5
SF-268 = tested on: SF-268
NCI-H522 = tested on: NCI-H522
NCI/ADR-RES = tested on: NCI/ADR-RES
HCC 2998 = tested on: HCC 2998
UO-31 = tested on: UO-31
A498 = tested on: A498
OVCAR-3 = tested on: OVCAR-3
UACC-257 = tested on: UACC-257
T47D = tested on: T47D
HT-29 = tested on: HT-29
Hs-578T = tested on: Hs-578T
MOLT-4 = tested on: MOLT-4
K562 = tested on: K562
ACHN = tested on: ACHN
RPMI-8226 = tested on: RPMI-8226
MDA-N = tested on: MDA-N
786-0 = tested on: 786-0
SF-539 = tested on: SF-539
OVCAR-8 = tested on: OVCAR-8
OVCAR-4 = tested on: OVCAR-4
HCT-116 = tested on: HCT-116
Malme-3M = tested on: Malme-3M
SK-MEL-2 = tested on: SK-MEL-2
UACC-62 = tested on: UACC-62
SNB-75 = tested on: SNB-75
BT-549 = tested on: BT-549
RXF 393 = tested on: RXF 393
HL-60 = tested on: HL-60
M14 = tested on: M14
COLO 205 = tested on: COLO 205
OVCAR-5 = tested on: OVCAR-5
SK-OV-3 = tested on: SK-OV-3
MDA-MB-435 = tested on: MDA-MB-435
A549 = tested on: A549
HOP-62 = tested on: HOP-62
SN12C = tested on: SN12C
IGROV-1 = tested on: IGROV-1
PC-3 = tested on: PC-3
SF-295 = tested on: SF-295
NCI-H23 = tested on: NCI-H23
EKVX = tested on: EKVX
SK-MEL-28 = tested on: SK-MEL-28
KM12 = tested on: KM12
MDA-MB-231 = tested on: MDA-MB-231
CAKI-1 = tested on: CAKI-1
HOP-92 = tested on: HOP-92
HCT-15 = tested on: HCT-15
SW-620 = tested on: SW-620
SNB-19 = tested on: SNB-19
LOX IMVI = tested on: LOX IMVI

CC(Oc1ccccc1Cl)C(=O)NN1C(=O)CC(=O)N(c2ccc(Cl)cc2)C1=S (centres undefined)
GI50 (SR): 8.77 µM (inactive) | GI50 (NCI-H460): 39.3 µM (inactive) | GI50 (NCI-H226): 52.8 µM (inactive) | GI50 (TK-10): 54.7 µM (inactive) | GI50 (DU-145): 34.6 µM (inactive) | GI50 (U-251): 39.4 µM (inactive) | GI50 (MCF7): 29.6 µM (inactive) | GI50 (CCRF-CEM): < 0.01 µM (active) | GI50 (SK-MEL-5): 36 µM (inactive) | GI50 (SF-268): 67.1 µM (inactive) | GI50 (NCI-H522): 23.3 µM (inactive) | GI50 (NCI/ADR-RES): 36.1 µM (inactive) | GI50 (HCC 2998): 50.9 µM (inactive) | GI50 (UO-31): 37.1 µM (inactive) | GI50 (A498): 20.4 µM (inactive) | GI50 (OVCAR-3): 38.4 µM (inactive) | GI50 (UACC-257): 45.1 µM (inactive) | GI50 (T47D): 34.6 µM (inactive) | GI50 (HT-29): 47.8 µM (inactive) | GI50 (Hs-578T): 49.8 µM (inactive) | GI50 (MOLT-4): 27.4 µM (inactive) | GI50 (K562): 13.1 µM (inactive) | GI50 (ACHN): 37.4 µM (inactive) | GI50 (RPMI-8226): 33.2 µM (inactive) | GI50 (MDA-N): 37.6 µM (inactive) | GI50 (786-0): 40.8 µM (inactive) | GI50 (SF-539): 75.5 µM (inactive) | GI50 (OVCAR-8): 38.8 µM (inactive) | GI50 (OVCAR-4): 28.1 µM (inactive) | GI50 (HCT-116): 32.1 µM (inactive) | GI50 (Malme-3M): > 100 µM (inactive) | GI50 (SK-MEL-2): 27.9 µM (inactive) | GI50 (UACC-62): 30.3 µM (inactive) | GI50 (SNB-75): 47.5 µM (inactive) | GI50 (BT-549): 55.1 µM (inactive) | GI50 (RXF 393): 30 µM (inactive) | GI50 (HL-60): 3.21 µM (inactive) | GI50 (M14): 47.5 µM (inactive) | GI50 (COLO 205): 39.7 µM (inactive) | GI50 (OVCAR-5): 75.3 µM (inactive) | GI50 (SK-OV-3): 59 µM (inactive) | GI50 (MDA-MB-435): 61 µM (inactive) | GI50 (A549): 36.5 µM (inactive) | GI50 (HOP-62): 46.3 µM (inactive) | GI50 (SN12C): 35.2 µM (inactive) | GI50 (IGROV-1): 50.1 µM (inactive) | GI50 (PC-3): 38.1 µM (inactive) | GI50 (SF-295): 44.1 µM (inactive) | GI50 (NCI-H23): 38 µM (inactive) | GI50 (EKVX): 45.4 µM (inactive) | GI50 (SK-MEL-28): 94.6 µM (inactive) | GI50 (KM12): 47.6 µM (inactive) | GI50 (MDA-MB-231): 40.4 µM (inactive) | GI50 (CAKI-1): 40.7 µM (inactive) | GI50 (HOP-92): 22.6 µM (inactive) | GI50 (HCT-15): 36.6 µM | GI50 (SW-620): 52 µM (inactive) | GI50 (SNB-19): 66.5 µM (inactive) | GI50 (LOX IMVI): 30.8 µM (inactive)

From ChEMBL document CHEMBL1201862, “PubChem BioAssay data set” (2004)
